Assay [1] has as its system KA induced SE. Briefly: KA induced ongoing SE, EEG, treatment 2 h after KA. The assay is classed as in vivo, mice. On the procedure: EEG recordings and analysis. WT C57Bl/6J adult male mice (12 weeks) were anesthetized with isofluorane and implanted with EEG/EMG electrodes and allowed to recover for 7 days prior to experimentation. […] 2 h following KA administration mice were injected with a saturating concentration of diazepam (DZ) 10 mg/kg (IP) and recordings were extended for a further 60 min. […] LabChart 8 software was used for data analysis. Epileptiform activity was identified by changes in the amplitude of electrographic activity characterized by consistent changes in the power of the Fast Fourier transform (FFT) of the EEG and abnormal activity characterized by periods of rhythmic spiking lasting longer than 30 s (Moore et al., 2017, supra; Silayeva et al., 2015, supra; Sivakumaran et al., J. Neurosci. 35, 8291-8296 (2015)).
To evaluate the potential of KCC2 activators to terminate ongoing SE, the KA model described above was employed. Mice were injected with KA (20 mg/Kg; IP). […] Spectral data were then subjected to FFT and the total EEG power between 1-100 Hz of the 2 h following KA treatment (pre-drug) and 30 min following their injection (post-drug) were compared (FIG. 6B). In mice treated with DZ alone variable effects were observed, from large increases to modest reductions in EEG power, but these effects were not significant (FIG. 6C; pre=1.1±0.2×10^−6, post=4.4±7.4×10^−7 μV^2, p=0.214, n=13-14 mice). […]

Assay [2] concerns panel of 144 protein kinases. Briefly: Protein kinase panel (SelectScreen; Thermofisher). As to conditions: 144 protein kinases incl. PKC isoforms, OSR1, SPAK, WNK. The assay is classed as biochemical. The method, then:
Aliquots of HEK-293 cells expressing KCC2 were exposed to 30 μM SSA, heated from 37-55° C. The remaining level of soluble native KCC2 at each temperature was measured by immunoblotting and normalized to the level seen at 37° C. which was given a value of 1. […] This panel included protein kinase C isoforms, OSR1, SPAK (STK39) and with-no-lysine kinases (WNK), all of which phosphorylate KCC2 on multiple residues to indirectly modify its activity (Kahle et al., 2013, supra; Smalley et al., 2020, supra).

Assay [3] deals with KA induced SE. The assay is described as follows: KA induced SE, EEG, direct injection into the hippocampus. It counts as in vivo, mice. As to conditions: injected into the hippocampus, DZ 2 h after KA. The method, then:
30 or 60 min later mice were injected with KA (20 mg/kg) and 2 h later with DZ as detailed above.

In assay [4] the test system is KA induced SE. The assay is described as follows: Kainic acid (KA) induced SE, EEG, pretreatment. The assay is classed as in vivo, mice. The conditions noted are these: Compound A pretreated, 2 h after KA, pre DZ; vehicle 4.2±2.4×10^−6. From the text: This model was chosen due to the similarities with patients undergoing SE, as KA-induced seizures become refractory to benzodiazepines (BDZs) within minutes (Betjemann and Lowenstein, Lancet Neurol 14, 615-624 (2015); Crawshaw and Cock, (2020a) [Seizure: Eur. J. Epilep. 75 (2020) 145-152] Seizure 80, 282; Lee et al., 2022, supra; Reddy and Kuruba, Int J Mol Sci 14, 18284-18318 (2013)).
EEG recordings and analysis. WT C57Bl/6J adult male mice (12 weeks) were anesthetized with isofluorane and implanted with EEG/EMG electrodes and allowed to recover for 7 days prior to experimentation. […] 2 h following KA administration mice were injected with a saturating concentration of diazepam (DZ) 10 mg/kg (IP) and recordings were extended for a further 60 min. […] LabChart 8 software was used for data analysis. […]
To provide quantitative insights on the effects of KA, raw EEG recordings were subject to Fast-Fourier transformation (8K FFT size, Hann (cosine-bell), 87.50% window overlap) for frequencies between 0-100 Hz 2 h after KA injection (Lee et al., 2022, supra). […]

The next assay has as its target T1, KCC2 (Homo sapiens, UniProt Q9H2X9).
T1 construct: expressed in transfected cells; host or cells: HEK-293 (ATCC CRL-1573)
T1 sequence (Q9H2X9 1-1116 isoform Q9H2X9-2): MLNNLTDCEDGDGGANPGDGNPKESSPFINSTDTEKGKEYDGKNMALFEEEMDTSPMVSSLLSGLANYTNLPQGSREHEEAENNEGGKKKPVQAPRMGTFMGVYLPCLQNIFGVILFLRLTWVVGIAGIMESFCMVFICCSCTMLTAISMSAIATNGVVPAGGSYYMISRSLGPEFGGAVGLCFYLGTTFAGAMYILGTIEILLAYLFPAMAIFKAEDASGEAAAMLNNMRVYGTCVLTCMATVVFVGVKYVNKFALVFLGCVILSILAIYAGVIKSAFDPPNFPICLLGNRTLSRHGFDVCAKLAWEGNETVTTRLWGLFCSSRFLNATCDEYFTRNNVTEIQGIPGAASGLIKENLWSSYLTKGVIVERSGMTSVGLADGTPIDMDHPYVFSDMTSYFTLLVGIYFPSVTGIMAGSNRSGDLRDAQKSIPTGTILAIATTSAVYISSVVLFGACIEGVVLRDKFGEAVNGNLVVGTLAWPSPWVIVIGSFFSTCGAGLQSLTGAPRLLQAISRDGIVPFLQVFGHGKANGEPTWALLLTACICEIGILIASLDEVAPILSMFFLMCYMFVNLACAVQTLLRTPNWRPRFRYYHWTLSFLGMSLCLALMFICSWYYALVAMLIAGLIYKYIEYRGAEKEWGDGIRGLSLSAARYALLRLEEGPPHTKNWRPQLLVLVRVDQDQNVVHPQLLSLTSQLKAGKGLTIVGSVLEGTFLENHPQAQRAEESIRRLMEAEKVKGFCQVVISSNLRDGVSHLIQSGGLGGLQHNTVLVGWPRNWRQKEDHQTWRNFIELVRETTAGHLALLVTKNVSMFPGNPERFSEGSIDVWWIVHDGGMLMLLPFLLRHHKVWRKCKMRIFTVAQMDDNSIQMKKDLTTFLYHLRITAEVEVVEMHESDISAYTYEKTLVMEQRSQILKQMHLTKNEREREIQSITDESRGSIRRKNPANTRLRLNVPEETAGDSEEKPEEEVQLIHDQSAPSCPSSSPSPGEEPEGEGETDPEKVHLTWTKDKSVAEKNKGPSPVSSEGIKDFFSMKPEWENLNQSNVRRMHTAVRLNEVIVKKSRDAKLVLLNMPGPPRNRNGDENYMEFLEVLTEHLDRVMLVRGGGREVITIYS
Briefly: FLIPR Tl+ flux assay in HEK-293 cells expressing KCC2. It counts as cell-based. The conditions noted are these: saturating concentration of 3 μM, 1% BCD vehicle. The method, then:
A multi-tiered high-throughput screening assay was used, leveraging a proprietary library of 1.3 million small molecule compounds from AstraZeneca (Cambridge, UK) to identify chemical entities capable of activating KCC2. A single point concentration of 30 μM was used to identify potassium flux using an established thallium (TI+) influx FLIPR assay as the primary read out in HEK-293 cells overexpressing KCC2 (Cardarelli et al., Nat. Med. 23, 1394-1396 (2017); Conway et al., J Biol Chem 292, 21253-21263 (2017); Lee et al., 2022, supra).
Cell Culture and biotinylation. […]
FLIPR TI Flux assay. HEK-293 cells were washed with HBSS, and then incubated with loading buffer containing TI sensitive fluorescent dye (https://www.moleculardevices.com), 20 μM bumetanide 20 μM ouabain and 2.5 mM probenecid for 1 h at room temperature (RT) under control conditions or with drugs in the dark using a FlexStation 3 microplate reader (Molecular Devices) and imaged […] for 30 min. Stimulus buffer was added containing 5 mM K^+/0.5 mM Tl^+ and cells were imaged every 1.5 over a 190 second time course The initial rate Tl^+ uptake (Relative Fluorescence Units (RFU) per second) was determined following addition of the stimulus buffer as outlined previously (Conway et al., 2017, supra) (Lee et al., 2022, supra). […]

Structures are written as SMILES.

Data on 2 molecules can be found in patent US20260191873A1, “FUSED AMINO PYRIMIDINE COMPOUNDS FOR TREATMENT OF 22q11.2 DELETION/DUPLICATION SYNDROMES” (Ovid Therapeutics Inc., priority 2024, published 2026).

`C[C@@H]1CN(c2nc3c(c(Nc4ccc(C5CCCCC5)cc4)n2)COC3)CCO1` [Compound A, (R)—N-(4-cyclohexylphenyl)-2-(2-methylmorpholino)-5,7-dihydrofuro[3,4-d]pyrimidin-4-amine]: in the assay with KA induced SE [1] (Compound A 50 mg/kg with DZ 10 mg/kg IP), the DZ insensitivity entry is “abolished”. Besides, the “activity of kinase panel” value in assay [2] is on record as “did not modify the activity”. The “effect of DZ on seizure parameters in pretreated mice” value in the assay on KA induced SE [3] is “significantly reduced”. The “total EEG power” value with KA induced SE [4] was 6.9±3.2×10^−7 μV^2. At KCC2, the maximum potentiation is listed as 90%.
Turning to `CN1C(=O)CN=C(c2ccccc2)c2cc(Cl)ccc21` [DZ, diazepam, reference compound], in the assay with KA induced SE [1] (DZ 10 mg/kg IP 2 h after KA), the “mice insensitive to the effects on EEG power” value was determined as 62%.
